These results are taken from patent US20190241952A1, “TAGGED MULTI-N[…] FOR NUCLEIC ACID SEQUENCING” (Roche Sequencing Solutions, Inc., priority 2016, published 2019).

Data set [1] has as its system exonuclease deficient variant of the Pol6 polymerase. In words: Displacement assay of single, double, triple and quadruple nucleotide substrates (Example 3). Type of data set: biochemical. An excerpt:
B. Assay protocol: The assay is a displacement assay using an exonuclease deficient variant of the Pol6 polymerase as described in Example 2, wherein polymerase activity is followed by fluorometrically monitoring the change in FRET between the Cy5 and BHQ labels as the polymerase incorporates the substrates in the DNA extension reaction.
Briefly, an assay solution containing the Pol6 polymerase, the 5′-Cy5-labelled displacement DNA template of SEQ ID NO: 124, and the 3′-BHQ-labelled quencher primer of SEQ ID NO: 124 in 75 mM potassium glutamate (“K-Glu”) is prepared in the absence of the substrate or Mg^2+ ion. A substrate solution is prepared containing either the multi-nucleotide compound to be assayed (i.e., “Y-Tag,” “W-Tag,” or “Q-Tag”), the non-tagged dT6P (“Hexa-PO4), or the tagged single nucleotide substrate, dA6P-dT30-C3 (”Full Tag“) of compound (3d). Also included in the substrate solution are the other three nucleotide-hexaphosphate (”dN6P″) substrates required for polymerase synthesis of a strand complementary to the DNA template (i.e., dA6P, dC6P, dG6P). This substrate solution is added to the polymerase solution. Assays are carried out for each of the test substrates at the following initial concentrations: 0.25 μM, 0.5 μM, 1.0 μM, 2.0 μM, 4.0 μM, and 8.0 μM. Additional K-Glu is added to bring the total K-Glu concentration in the mixture up to 300 mM. The polymerase reaction is then initiated by addition of MgCl2. Final concentrations in the assay reaction mixture are: 100 nM Pol6 enzyme, 50 nM Cy5 displacement DNA template, 40 μM each of other dN6P substrates, 300 mM K-Glu, 25 mM HEPES, 0.2 mM EDTA, 0.05% Triton X-100, 5 mM TCEP, 25 μg/mL BSA, 5 mM MgCl2, pH 7.5.

Data set [2] has as its system α-HL-Pol6 nanopore-polymerase conjugate. Type of data set: biochemical.

For `Cc1cn([C@H]2C[C@H](O)[C@@H](COP(=O)(O)OP(=O)(O)OP(=O)(O)OP(=O)(O)OP(=O)(O)OP(=O)(O)O)O2)c(=O)[nH]c1=O` [dT6P], the Rate in data set [1] (Initial Conc. Tag 0.25 μM) is given as 0.57 Bases/sec; in data set [1] (Initial Conc. Tag 0.5 μM) it was 2.87 Bases/sec; in data set [1] (Initial Conc. Tag 1.0 μM), 3.48 Bases/sec; in data set [1] (Initial Conc. Tag 2.0 μM), 3.89 Bases/sec; in data set [1] (Initial Conc. Tag 4.0 μM), 4.48 Bases/sec; in data set [1] (Initial Conc. Tag 8.0 μM), 4.24 Bases/sec.

With “(dA6P)2-dT5-(BHEB)-dT14-C3: two dA6P via doubler-linker on tag SEQ ID NO: 109 (DNA ttttttttttttttttttt; two dA6P via doubler linker; BHEB; C3; (5)..(6) bis-hydroxyethylbenzene residue between nucleotide residues 5 and 6; (19)..(19) T-propanol)”, in data set [2], the blocking current level is 0.88+/−0.03.

For the molecule “(dC6P)2-dT20-C3: two dC6P via doubler-linker on tag SEQ ID NO: 105 (DNA tttttttttttttttttttt; two dC6P via doubler linker; C3; (20)..(20) T-propanol)”, in data set [2], the blocking current level is 0.76+/−0.04.

Regarding “(dG6P)2-dT6-(Tmp)6-dT8-C3: two dG6P via doubler-linker on tag SEQ ID NO: 107 (DNA TTTTTTTTTTTTTT; two dG6P via doubler linker; Tmp; C3; (6)..(7) 6 thymidine methylphosphonate residues between nucleotide residues 6 and 7; (14)..(14) T-propanol)”, the blocking current level in data set [2] is on record as 0.38+/−0.08.

For “(dT6P)2-dT4-(N3CET)3-dT13-C3: two dT6P via doubler-linker on tag SEQ ID NO: 106 (DNA TTTTTTTTTTTTTTTTT; chemistry not fully specified)”, the blocking current level in data set [2] is recorded as 0.62+/−0.05.
